“Also recorded” adds a separate entry of the source.
How the values were obtained:
[1] = test system: CXCL12 in plasma (biomarker of CXCR7 receptor antagonist); test: Dose finding of COMPOUND in naive mice, CXCL12 elevation in plasma; assay type: in vivo, mouse (C57BL/6); details: COMPOUND 100 mg/kg b.i.d. oral, 3 days, naive C57BL/6 mice, exposure at trough (14 hours after last dosing), only the highest dose tested
Description: CXCL12 or CXCL11 plasma concentrations may be determined using methods well known in the art, e.g. an Ella® immunoassay (Bio-Techne®), or a commercial quantikine ELISA mouse CXCL12/SDF1α kit from R&D systems.

MOG-induced EAE mice [2] = test: Monotherapy efficacy experiment in MOG-induced EAE model (preventive setting); assay type: in vivo, mouse (C57BL/6)
Procedure: (§1) Female C57BL/6 mice are immunized with an emulsion of MOG in complete Freund's adjuvant (CFA) and pertussis toxin (day 0). A total of 150 μg of MOG is injected per mice at two sites subcutaneously in each flank of the abdomen. Mice are injected intraperitoneally with pertussis toxin a second time, 2 days after the first injection (day 2). Within 9 to 14 days, mice develop signs of paralysis which will be graded on a scale from 0 to 5 assessing the tail and limbs defined as: 0=no clinical sign of EAE, 0.5=end tail paralyzed or one limb weakness, 1=tail paralyzed or two limbs weakness, 1.5=tail paralyzed and one hind limb weakness, 2=tail paralyzed and bilateral partial hind limb paralysis, 2.5=tail paralyzed and unilateral complete hind limb paralysis, 2.75=score of 2.5+unilateral partial hind limb paralysis, 3=complete bilateral hind limb paralysis, 3.25=3+unilateral partial forelimb paralysis, 3.5=3+unilateral complete forelimb paralysis, 4=complete paralysis (moribund) and, 5=death or euthanized.
The disease progression follows a chronic progressive course with no remission.
It consists of four treatment groups: • 1. Vehicle (water) b.i.d., from day 0 • 2.
Clinical scores are assessed on a daily basis and disease development is compared between vehicle-treated mice and mice receiving COMPOUND. The cumulative disease score is calculated for each mouse by summing all the daily clinical scores over the 29-days study period. The experiment is terminated at day 29, 1 to 4 hours post dosing. […] CXCL12 plasma concentrations are determined using a commercial quantikine ELISA mouse CXCL12/SDF1c kit from R&D systems, according to manufacturer's instructions.
Groups of 10 mice are dosed orally starting at the day of disease induction (day 0). It consists of two treatment groups: • 1. Vehicle (0.5% Methylcellulose/0.5% Tween® 80) b.i.d., from day 0 • 2. Fingolimod (0.03 mg/kg) q.d.+Vehicle q.d., from day 0
Clinical scores are assessed on a daily basis and disease development is compared between vehicle-treated mice and mice receiving fingolimod. The cumulative disease score is calculated for each mouse by summing all the daily clinical scores over the 27-days study period. The experiment is terminated at day 27.

MOG-induced EAE mice [3] = test: Combination efficacy experiment in the MOG-induced EAE model (therapeutic setting); assay type: in vivo, mouse (C57BL/6); details: for efficacy on the clinical scores of the disease: from day 7 (just before onset), COMPOUND 100 mg/kg b.i.d., fingolimod 0.03 mg/kg q.d., combination effect from day 14 onwards
Procedure: The combination efficacy experiment is performed in the same mouse EAE model as described for the pilot experiments.
Groups of 10 mice are dosed orally starting just before the onset of disease (day 7). It consists of four treatment groups: • 1. Vehicle (0.5% Methylcellulose/0.5% Tween® 80) b.i.d., from day 7 • 2. Fingolimod (0.03 mg/kg) q.d.+Vehicle q.d., from day 7 • 3.
Clinical scores are assessed on a daily basis and disease development is compared between vehicle-treated mice and mice receiving the different treatments. The experiment is terminated at day 16 or day 17. Hematology parameters, including lymphocyte count, are measured at the termination of the experiment. […] CXCL12 plasma concentrations are determined using a commercial quantikine ELISA mouse CXCL12/SDF1c kit from R&D systems, according to manufacturer's instructions.

[4] = test system: cuprizone-induced demyelination mice; test: Cuprizone-induced demyelination mouse model, Experiment 1; assay type: in vivo, mouse (C57BL/6); details: 6 weeks
Procedure: Male C57BL/6 mice are exposed to cuprizone (CPZ; 150 mg/kg, b.i.d.), a […] chelating agent which leads to the death of mature oligodendrocytes, by oral gavage twice daily for six weeks. […] The experiment is terminated after 6 weeks of cuprizone exposure. […] CXCL12 plasma concentrations are measured as previously described in example A. Brain samples are isolated and fixed for histopathological and immunohistochemistry examinations to assess the degree of demyelination (Luxol Fast Blue for myelin staining) and the loss of mature oligodendrocytes (GSTiT staining).

[5] = test system: cuprizone-induced demyelination mice; test: Cuprizone-induced demyelination model with cuprizone withdrawal, Experiment 2; assay type: in vivo, mouse (C57BL/6); details: week 5 to week 7; COMPOUND 100 mg/kg b.i.d., fingolimod 0.3 mg/kg q.d.
Procedure: Male C57BL/6 mice are exposed to a 0.2% cuprizone diet for six weeks and then switched to control food for one more week. Groups of 8-9 mice are dosed orally starting after five weeks of cuprizone exposure. It consists of three treatment groups: • 1. Vehicle (0.5% Methylcellulose/0.5% Tween® 80) b.i.d., from week 5 to week 7 • 2. Fingolimod (0.3 mg/kg) q.d.+Vehicle q.d., from week 5 to week 7 • 3. […] Hematology parameters, including lymphocyte count, are measured at the termination of the experiment, one hour after the last dosing. […] Brain samples are isolated and fixed for histopathological and immunohistochemistry examinations to assess the degree of demyelination (Luxol Fast Blue for myelin staining).

PLP-induced EAE mice = test: Monotherapy efficacy experiment in the PLP-induced EAE model (therapeutic setting); assay type: in vivo, mouse (SJL/J)
Procedure: as §1, with “SJL/J” for “C57BL/6”, “PLP” for “MOG”, “CFA” for “complete Freund's adjuvant (CFA)”, “100” for “150”, “16” for “14”, “euthanized. The disease progression follows a relapsing-remitting course with a first peak of disease occurring three to five days after the onset, followed by a remission phase and a second peak of the disease between 20-30 days after EAE induction.” for “euthanized.”
The study consists of four treatment groups: • 1. Vehicle (water) b.i.d., from disease onset for each mouse • 2.
Clinical scores are assessed on a daily basis, in a blinded manner and disease development is compared between vehicle-treated mice and mice receiving COMPOUND. The cumulative disease score is calculated for each mouse by summing all the daily clinical scores over the 30-days after treatment initiation. […] CXCL12 plasma concentrations are determined as previously described in example A.

[6] = First-in-human single-dose study in healthy male subjects (NCT03869320); assay type: in vivo; details: male, human, plasma
Procedure: (§2) […] […] In the 30 mg dose level group the effect of food is additionally investigated by administering the same treatment to the same subjects after a standardized high-fat breakfast.

healthy male subjects = test: as above; assay type: in vivo
Procedure: as §2

[7] = test system: lymphocyte count in peripheral blood; test: Dose finding of fingolimod in healthy mice, lymphocyte count in peripheral blood; assay type: in vivo, mouse (C57BL/6)
Procedure: In parallel to the measurement of target engagement of COMPOUND, a second pilot experiment is performed. Healthy female C57BL/6 receive fingolimod at different doses in the range from 0.01 to 0.3 mg/kg, once daily (q.d.). The goal is to assess the dose-effect relationship of fingolimod on lymphocyte count in peripheral blood (which is an established biomarker to monitor pharmacological activity of S1P1 receptor modulators) in this strain of mouse over 24 h.

patients = details: cited from earlier work
[8] = test system: lymphocyte count in peripheral blood; test: Dose finding of siponimod in healthy SJL/J mice, alone and with COMPOUND; assay type: in vivo, mouse (SJL/J); details: siponimod 0.3 mg/kg q.d. oral, healthy female SJL/J mice
Procedure: In a pilot experiment, healthy female SJL/J mice are dosed orally for 2 to 3 days with siponimod at different doses in the range from 0.03 to 1 mg/kg, once daily. The goal is to assess the dose-effect relationship of siponimod on lymphocyte count in peripheral blood (which is an established biomarker to monitor pharmacological activity of S1P1 receptor modulators) in this strain of mouse over 24 h.

[9] = COMPOUND 10, 100, 150 mg/kg b.i.d. from disease onset

For `O=C(N[C@H]1CCN(CC2CC2)C[C@@H]1C(=O)NC1(c2ncccn2)CC1)c1cc(-c2ccc(F)cc2F)on1` [COMPOUND, (3S,4S)-1-Cyclopropylmethyl-4-{[5-(2,4-difluoro-phenyl)-isoxazole-3-carbonyl]-amino}-piperidine-3-carboxylic acid (1-pyrimidin-2-yl-cyclopropyl)-amide], the “plasma CXCL12 increase over 24 h” value [1] was “sustain plasma CXCL12 increase over 24 h; also recorded: sustain CXCL12 plasma levels over 24 hours”, the “overall burden of EAE disease” value (MOG-induced EAE mice [2]; COMPOUND 100 mg/kg b.i.d., preventive setting) was “significantly reduces” and the “plasma CXCL12 levels” value (MOG-induced EAE mice [2]; COMPOUND 10, 30, 100 mg/kg b.i.d. from day 0, day 29, 1 to 4 hours post dosing) was “dose-dependent increase”. For the same compound, the “overall extent of EAE disease, mean cumulative disease scores over the 29-days study” value (MOG-induced EAE mice [2]; COMPOUND 10, 30, 100 mg/kg b.i.d. oral from day 0 (preventive)) was “dose-dependent efficacy”, the CXCL12 plasma levels (MOG-induced EAE mice [3]; COMPOUND 100 mg/kg b.i.d. from day 7, at termination) was “increase” and the “efficacy on the clinical scores of the disease” value (MOG-induced EAE mice [3]) was “moderate”. The “mature oligodendrocyte counts in the corpus callosum” value ([4]; COMPOUND 100 mg/kg b.i.d. preventive from day 0 (prev-CPZ)) was “increased significantly”, the “myelin stain (Luxol Fast Blue) in the corpus callosum” value ([4]; COMPOUND 100 mg/kg b.i.d. preventive, co-administered with cuprizone from day 0 (prev-CPZ)) was “increased significantly” and the “mature oligodendrocyte counts in the corpus callosum” value ([4]; COMPOUND 100 mg/kg b.i.d. therapeutic from week 3 (ther-CPZ)) was “increased significantly”. The “myelin stain (Luxol Fast Blue) in the corpus callosum” value ([4]; COMPOUND 100 mg/kg b.i.d. therapeutic, starting 3 weeks after cuprizone start (ther-CPZ)) was “increased significantly”, the “spontaneous remyelination in the corpus callosum one week after CPZ withdrawal” value [5] was “accelerated significantly” and the “CXCL11 plasma levels at trough” value (PLP-induced EAE mice; COMPOUND 100 mg/kg b.i.d.) was “increases”. The “CXCL12 plasma levels at trough” value (PLP-induced EAE mice; COMPOUND 100 mg/kg b.i.d.) was “increases”, the “clinical scores in the PLP-induced EAE model” value (PLP-induced EAE mice; COMPOUND 100 mg/kg b.i.d.) was “maximally reduces” and the “plasma CXCL11 levels” value (PLP-induced EAE mice; [9]) was “dose-dependent increase”. For the same compound, the “plasma CXCL12 levels” value (PLP-induced EAE mice; [9]) was “dose-dependent increase”, the “overall extent of the disease, mean cumulative disease scores over 30 days after treatment initiation” value (PLP-induced EAE mice; COMPOUND 10, 100, 150 mg/kg b.i.d. oral from disease onset (therapeutic)) was “dose-dependent efficacy” and the bioavailability ([6]; iv, i.v. microtracer, 200 mg dose level group, read-out: absolute bioavailability) was about 50%. For the same compound, the Tmax ([6]; single oral doses >=10 mg, fasted) was 1.3 to 3 h, the “food effect on the pharmacokinetics” value (healthy male subjects; 30 mg, standardized high-fat breakfast vs fasted) was “no relevant food effect” and the “dose dependence of plasma CXCL12 concentrations” value (healthy male subjects; 1 to 200 mg single oral dose) was “dose-dependently increase”. The “exposure increase across the dose range” value (healthy male subjects; 1 to 200 mg single oral dose) was “essentially dose-proportional”, the CXCL11 concentrations (healthy male subjects; healthy volunteers, single dose) was “essentially unchanged” and the route of excretion (healthy male subjects; oral microtracer, 100 mg dose level group) was “mainly excreted in feces and to a minor extent in urine”. For the same compound, the “plasma CXCL12 levels compared to baseline” value (healthy male subjects; single oral dose, across tested dose range) was “approximately 2 fold” and the safety and tolerability (healthy male subjects; single oral doses from 1 to 200 mg, healthy male subjects) was “safe and well tolerated”.
In the case of `CCCCCCCCc1ccc(CCC(N)(CO)CO)cc1` [fingolimod, 2-amino-2-[2-(4-octylphenyl)ethyl]-propane-1,3-diol, reference compound], the “lymphocyte count reduction over 24 h” value ([7]; fingolimod 0.03 mg/kg q.d., healthy female C57BL/6) is reported as “partial efficacy”, the “lymphocyte count reduction over 24 hours” value ([7]; fingolimod 0.3 mg/kg q.d.) is reported as “fully efficacious” and the “plasma CXCL12 levels” value (MOG-induced EAE mice [2]; fingolimod 0.03 mg/kg q.d. from day 0) is reported as “not associated with an increase”. The “overall extent of EAE disease, cumulative disease scores over the 27-days study” value (MOG-induced EAE mice [2]; fingolimod 0.03 mg/kg q.d. oral from day 0 (preventive)) was “exhibits efficacy”, the “lymphocyte count in peripheral blood” value (MOG-induced EAE mice [3]; fingolimod 0.03 mg/kg q.d. from day 7, at termination) was “reduction” and the “efficacy on the clinical scores of the disease” value (MOG-induced EAE mice [3]) was “minimal”. For the same compound, the “spontaneous remyelination in the corpus callosum one week after CPZ withdrawal” value [5] was “no effect”, the “time for lymphocyte counts to return to the normal range after stopping therapy” value (patients; fingolimod, human) was 1-2 months and the “time remaining in the blood with pharmacodynamic effects (decreased lymphocyte counts) following the last dose” value (patients; fingolimod, human) was “up to 2 months”.
For `CCc1cc(/C(C)=N/OCc2ccc(C3CCCCC3)c(C(F)(F)F)c2)ccc1CN1CC(C(=O)O)C1` [siponimod, 1-(4-[1-[(E)-4-Cyclohexyl-3-trifluoromethyl-benzyloxyimino]-ethyl]-2-ethyl-benzyl)-azetidine-3-carboxylic acid], the “lymphocyte count reduction over 24 h” value [8] is listed as “full efficacy”, the “persistence of residual pharmacodynamics effects (lowering of peripheral lymphocyte count) after the last dose” value (patients; siponimod, human) is listed as 3-4 weeks and the “time remaining in the blood after stopping therapy” value (patients; siponimod, human) is listed as “up to 10 days”. The “patients whose lymphocyte counts returned to the normal range” value (patients; siponimod, within 10 days of stopping therapy) was 90 % of patients.

— patent publication US20250228850A1, “COMBINATION OF A CXCR7 ANTAGONIST WITH AN S1P1 RECEPTOR MODULATOR” (Idorsia Pharmaceuticals Ltd., priority 2019, published 2025)
